Laboratory results: patent publication US6689395B2, “Pesticidal compositions containing plant essential oils against mites” (priority 1999, dated 2004)

Test system: mold mite
Assay: Toxicity of plant essential oils fogged into food cartons against mold mites
Type: in vivo
Details: for control of the mites (pest mortality): about 1 g test substance fogged into half pint milk carton, about 100 mites per carton, cartons opened at 24 hour intervals, from day one; for control of the mites (mortality): repeated experiment, cartons not opened until day ten
Source text: Half pint milk cartons were used as sample food containers. The composition of the carton is multilayer paper, plastic and foil. The last two inner layers are foil and plastic; the food inside the carton is in contact with the plastic. Utilizing a ULV sprayer, the plant essential oils were fogged into the container. Approximately one gram of liquid test substance (i.e. plant essential oil) was deposited into the container. The desired amount of food and approximately 100 mites per carton were then added to the container and the carton was sealed. The materials tested included 2-phenyl ethyl alcohol, 2-phenyl ethyl propionate, trans-anethole, and benzyl alcohol. The cartons were opened at 24 hour intervals, a new carton each interval, to observe for pest mortality and the results were recorded.
The experiment was repeated, but the cartons were not opened until day ten.

Row | Structure (SMILES) | control of the mites (pest mortality) | control of the mites (mortality)
1 | OCCc1ccccc1 [2-phenyl ethyl alcohol] | good control | best results of mortality
2 | CCC(=O)OCCc1ccccc1 [2-phenyl ethyl propionate] | good control | best results of mortality
